What all share (format): in vivo
The subject of data set [1] is Papaver rhoeas. In words: Post-emergence field trial, herbicidal effect. To be noted: Table 8; post emergence application GS18, field trial; 50 g a.i./ha. On the procedure: (§1) The experiments were conducted as post applied field trials with plot sizes of 11.25-15 qm, an application volume of 250-300 liter water per hectare and two to three repetitions. Seeds of different crops and various monocot and dicot weeds were either sown or the monocot and dicot weeds were grown naturally and established under common field conditions. The evaluation 13-46 days after application was assessed visually. Treated plants were compared to untreated plants (0-100% scale). In the tables below, GS (growth stage) corresponds to BBCH-code (see for reference Lancashire, P. D.; H. Bleiholder; P. Langeluddecke; R. Stauss; T van den Boom; E. Weber; A. Witzen-Berger (1991). “A uniform decimal code for growth stages of crops and weeds”: Ann. Appl. Biol. 119 (3): 561-601; or Witzenberger, A.; H. Hack; T van den Boom (1989): “Erläuterungen zum BBCH-Dezimal-Code für die Entwicklungsstadien des Getreides—mit Abbildungen”. Gesunde pflanzen 41: 384-388; or Zadoks, J. C., Chang, T T & Konzak, C. F. (1974): A decimal code for the growth stages of cereals. Weed Research 14, 415421)
(§2) The generated values from applications alone and in combination were used to evaluate the combinatorial effects according to S. R. Colby, Weeds 15, pages 20 to 22 (1967).
(§3) The abbreviations have the following meaning: • a.i.=active ingredient • E=Observed combination effect value • EC=Calculated combination effect value according to Colby (EC=A+B−A×B/100) • Diff:=Difference (%) between observed and expected combination effect value (%) (observed minus expected value)

Data set [2] deals with Hordeum vulgare. To be noted: Table 2; post emergence application GS29, field trial; 200 g a.i./ha; visual, 0-100% scale vs untreated. On the procedure: as §1, §2, §3
For data set [3], the system named is Triticum aestivum. To be noted: 200 g a.i./ha. The protocol:
as §1, §2, §3

The test system of data set [4] is Centaurea cyanus. In words: Post-emergence field trial, herbicidal effect. The note with it: post emergence application GS18, field trial. On the procedure: as §1, §2, §3
The test system of data set [5] is Galium aparine. Put plainly: Post-emergence field trial, herbicidal effect. The note with it: post emergence application GS23, field trial. On the procedure: as §1, §2, §3

As to `CSc1nnc(C(C)(C)C)c(=O)n1N` [metribuzin, reference compound], in data set [1], the “Efficacy [%] against Papaver rhoeas” value came out at 0%.
For `CC1(C)CON(Cc2ccc(Cl)cc2Cl)C1=O` [COMPOUND I, 2-(2,4-dichlorophenyl)methyl-4,4-dimethyl-3-isoxazolidone], the “Efficacy/selectivity [%] against Hordeum vulgare” value in data set [2] was determined as 32%. In addition, in data set [3] (Table 1, post emergence application GS30, field trial, visual, 0-100% scale vs untreated), the “Efficacy/selectivity [%] against Triticum aestivum” value is given as 30%. Besides, the “Efficacy/selectivty [%] against Triticum aestivum” value in data set [3] (Table 3, post emergence application GS29, field trial) stood at 18%. In data set [1], the “Efficacy [%] against Papaver rhoeas” value is recorded as 0%. Besides, the “Efficacy [%] against Centaurea cyanus” value came out at 25% in data set [4] (Table 5, 50 g a.i./ha); 25% in data set [4] (Table 6, 50 g a.i./ha); 75% in data set [4] (Table 9, 100 g a.i./ha). Further, the “Efficacy [%] against Galium aparine” value in data set [5] (Table 4, 100 g a.i./ha) turned out to be 25%; in data set [5] (Table 7, 100 g a.i./ha), 0%.
In the case of `CCCCCCCC(=O)Oc1c(Br)cc(C#N)cc1Br` [bromoxynil AS octanoate, reference compound], the “Efficacy [%] against Galium aparine” value in data set [5] (Table 7, 175 g a.i./ha) was determined as 10%.
Consider `Nc1c([N+](=O)[O-])ccc(Oc2ccccc2)c1Cl` [aclonifen, reference compound], for which, in data set [4] (Table 9, 450 g a.i./ha), the “Efficacy [%] against Centaurea cyanus” value is on record as 0%.
In the case of `O=C(Nc1ccc(F)cc1F)c1cccnc1Oc1cccc(C(F)(F)F)c1` [diflufenican, reference compound], in data set [4] (Table 6, 75 g a.i./ha), the “Efficacy [%] against Centaurea cyanus” value came to 0%.
`Nc1c(Cl)c(F)nc(OCC(=O)O)c1Cl` [fluroxypyr, reference compound]: the “Efficacy [%] against Centaurea cyanus” value in data set [4] (Table 5, 150 g a.i./ha) amounted to 30%.
